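Assay format: 96-well plates, 48-hour exposure. The concentration for 50% growth inhibition is given as GI50.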 Active and inactive are the calls of the source. Rule as the data show it: active = GI50 up to about 1.1 µM and inactive = higher.
Tests used:
Experiment in all cases: NCI anticancer screen, dose series, 48 h
NCI-H226 = tested on: NCI-H226
DU-145 = tested on: DU-145
OVCAR-8 = tested on: OVCAR-8
U-251 = tested on: U-251
EKVX = tested on: EKVX
SK-MEL-5 = tested on: SK-MEL-5
HCC 2998 = tested on: HCC 2998
A549 = tested on: A549
ACHN = tested on: ACHN
Malme-3M = tested on: Malme-3M
KM12 = tested on: KM12
CCRF-CEM = tested on: CCRF-CEM
786-0 = tested on: 786-0
HL-60 = tested on: HL-60
MOLT-4 = tested on: MOLT-4
MDA-N = tested on: MDA-N
NCI/ADR-RES = tested on: NCI/ADR-RES
HT-29 = tested on: HT-29
SF-268 = tested on: SF-268
RPMI-8226 = tested on: RPMI-8226

Compound	GI50 (NCI-H226)	GI50 (DU-145)	GI50 (OVCAR-8)	GI50 (U-251)	GI50 (EKVX)	GI50 (SK-MEL-5)	GI50 (HCC 2998)	GI50 (A549)	GI50 (ACHN)	GI50 (Malme-3M)	GI50 (KM12)	GI50 (CCRF-CEM)	GI50 (786-0)	GI50 (HL-60)	GI50 (MOLT-4)	GI50 (MDA-N)	GI50 (NCI/ADR-RES)	GI50 (HT-29)	GI50 (SF-268)	GI50 (RPMI-8226)
N#Cc1c(-c2ccccc2)cn(C(=O)c2ccccc2)c1N	> 100 µM (inactive)	> 100 µM (inactive)	> 100 µM (inactive)	> 100 µM (inactive)	> 100 µM (inactive)	> 100 µM (inactive)	< 0.01 µM (active)	> 100 µM (inactive)	> 100 µM (inactive)	> 100 µM (inactive)	> 100 µM (inactive)	> 100 µM (inactive)	> 100 µM (inactive)	> 100 µM (inactive)	> 100 µM (inactive)	> 100 µM (inactive)	> 100 µM (inactive)	> 100 µM (inactive)	> 100 µM (inactive)	> 100 µM (inactive)
COc1cc2cc(C(=O)N3CC(CCl)c4ccc(N(C)C)cc43)[nH]c2c(OC)c1OC (stereo not given)	0.152 µM (active)	0.0333 µM (active)	0.0989 µM (active)	0.0897 µM (active)	0.173 µM (active)	0.131 µM (active)	0.0303 µM (active)	0.0194 µM (active)	0.0199 µM (active)	0.109 µM (active)	0.127 µM (active)	0.0547 µM (active)	0.0361 µM (active)	0.0277 µM (active)	0.048 µM (active)	0.185 µM (active)	0.0449 µM (active)	0.0817 µM (active)	0.0678 µM (active)	0.043 µM (active)

Source: ChEMBL document CHEMBL1201862, “PubChem BioAssay data set” (2004)
